Publication PMC7294809, “Discovery of an Allosteric Binding Site in Kinetoplastid Methionyl-tRNA Synthetase” (ACS Infectious Diseases, 2020)
Converted amounts (≈) assume the structure as drawn. Read-outs that look alike come from different tables or passages of the source. Marks after values point to notes of the source that are not given here.

How the values were obtained:
TcMetRS [1] = molecular target: T1, TcMetRS (Trypanosoma cruzi, UniProt Q4D6H2); test: TcMetRS mode of inhibition studies; type: biochemical; details: TcMetRS, fit to eq 7, ± SE of fit
T1 sequence (Q4D6H2 entry or part of it): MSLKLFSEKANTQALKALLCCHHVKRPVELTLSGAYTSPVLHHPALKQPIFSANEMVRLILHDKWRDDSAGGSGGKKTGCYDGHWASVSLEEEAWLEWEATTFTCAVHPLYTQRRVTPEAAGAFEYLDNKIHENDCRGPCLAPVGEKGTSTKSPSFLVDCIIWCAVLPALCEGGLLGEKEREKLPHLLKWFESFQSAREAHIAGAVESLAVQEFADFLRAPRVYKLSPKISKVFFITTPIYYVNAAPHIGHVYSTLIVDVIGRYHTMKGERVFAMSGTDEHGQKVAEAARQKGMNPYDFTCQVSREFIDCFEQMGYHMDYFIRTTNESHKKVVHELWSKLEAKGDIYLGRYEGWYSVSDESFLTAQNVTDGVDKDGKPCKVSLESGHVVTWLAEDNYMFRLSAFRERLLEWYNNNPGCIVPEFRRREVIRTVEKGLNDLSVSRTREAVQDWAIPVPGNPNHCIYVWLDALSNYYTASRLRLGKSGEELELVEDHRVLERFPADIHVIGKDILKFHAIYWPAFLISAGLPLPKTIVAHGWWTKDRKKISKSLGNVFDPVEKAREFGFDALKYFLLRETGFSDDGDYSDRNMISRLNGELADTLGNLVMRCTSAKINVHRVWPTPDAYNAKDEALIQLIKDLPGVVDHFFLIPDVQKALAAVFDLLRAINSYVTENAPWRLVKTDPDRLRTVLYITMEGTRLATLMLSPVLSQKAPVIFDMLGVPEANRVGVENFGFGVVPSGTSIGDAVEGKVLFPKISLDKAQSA
From the text: It was therefore feasible to perform TcMetRS mode inhibition studies with this compound. These studies, carried out as previously described for LdMetRS, confirm a best fit to the same partial, cooperative, noncompetitive inhibition model (eq 7; Supporting Information Figure 6 and Table 4).
(§1) Using GraFit v6.0 (Erithacus Software), each data set was globally fitted to standard competitive, uncompetitive, and noncompetitive inhibition models (eqs 3–5).
(§2) Equation 5 (noncompetitive inhibition model): [drawing 5] 5 On the basis of poor data fits to the above models, partial inhibition and cooperativity parameters were introduced into the uncompetitive and noncompetitive models as previously described by Skovpen et al.[30],[31] Mode of inhibition data were globally fitted to these modified equations (eqs 6 and 7).
(§3) Equation 7 (cooperative, noncompetitive, partial inhibition model): [drawing 7] 7 v is the velocity, Vmax is the maximum velocity, [S] is the substrate concentration, [I] is the inhibitor concentration, Ki is the inhibitor constant, Ks is the substrate dissociation constant, n is the substrate Hill slope, h is the inhibitor Hill slope, and β is the proportionality constant (fraction of activity remaining when the enzyme is fully saturated with inhibitor).
(§4) If more than one model appeared possible, then data were fitted to both and examined for significance using the F-test function in GraFit.

[2] = Aqueous solubility, filtration-based method; type: physicochemical; details: aqueous buffer, kinetic from dmso stock; phosphate-buffered saline pH 7.4, 24 h, 25 °C
Procedure: Solubility was assessed using a filtration-based method. Test compounds were dissolved in DMSO to give 10 mM solutions. Five microliters of the 10 mM solution was added to 195 μL of phosphate-buffered saline at pH 7.4 and mixed for 24 h (rotary mixing, 900 rpm, 25 °C) excluding light. After mixing, the samples were filtered to remove any undissolved material using a Millipore Multiscreen HTS filter. The filtrate was analyzed for dissolved drug compounds using UHPLC.

CHI LogD measurement = type: physicochemical
Procedure: CHI LogD measurements were performed as described elsewhere.[29] cLogP measurements were calculated using StarDrop (Optibrium).

LdMetRS [3] = molecular target: T2, LdMetRS (Leishmania donovani, UniProt A0A3Q8IBX2); test: LdMetRS BIOMOL Green biochemical assay, 10-point dose response; details: for IC50: 50 nM LdMetRS, pIC50 = −log IC50 (M)
T2 sequence (A0A3Q8IBX2 entry or part of it): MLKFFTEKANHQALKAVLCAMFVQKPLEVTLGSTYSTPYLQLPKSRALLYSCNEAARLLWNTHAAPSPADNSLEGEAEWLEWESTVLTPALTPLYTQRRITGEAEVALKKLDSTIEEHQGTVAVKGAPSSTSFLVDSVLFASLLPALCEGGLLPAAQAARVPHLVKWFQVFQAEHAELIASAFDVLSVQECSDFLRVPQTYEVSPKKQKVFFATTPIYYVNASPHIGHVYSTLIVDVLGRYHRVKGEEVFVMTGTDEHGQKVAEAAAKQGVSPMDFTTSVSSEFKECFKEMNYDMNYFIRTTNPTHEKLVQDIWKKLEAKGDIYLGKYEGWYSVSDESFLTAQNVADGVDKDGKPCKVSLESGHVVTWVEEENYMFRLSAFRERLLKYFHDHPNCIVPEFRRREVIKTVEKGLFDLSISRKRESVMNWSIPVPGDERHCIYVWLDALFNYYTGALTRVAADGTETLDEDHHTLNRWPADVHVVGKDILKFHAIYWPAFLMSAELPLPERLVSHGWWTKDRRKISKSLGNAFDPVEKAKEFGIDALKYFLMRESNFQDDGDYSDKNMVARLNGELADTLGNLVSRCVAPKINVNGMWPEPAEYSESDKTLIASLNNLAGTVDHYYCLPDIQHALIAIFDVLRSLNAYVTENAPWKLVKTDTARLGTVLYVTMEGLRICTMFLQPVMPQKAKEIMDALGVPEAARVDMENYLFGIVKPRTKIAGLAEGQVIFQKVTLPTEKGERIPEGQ

TcMetRS [4] = molecular target: T1, TcMetRS; test: TcMetRS BIOMOL Green biochemical assay, 10-point dose response; details: for TcMetRS Maximum % Inhibition Plateau: Table 3, plateau of dose-response curve; for Emax: read-out: TcMetRS Maximum % Inhibition
LdMetRS [5] = molecular target: T2, LdMetRS; test: LdMetRS mode of inhibition studies; type: biochemical; details: for Ki / h (inhibitor Hill slope) / β (fraction of activity remaining) / Vmax / n (substrate Hill slope) / Ks: LdMetRS; for Ki: fit to eq 7, ± SE of fit; for Vmax: global fit parameter; for n (substrate Hill slope) / Ks: global fit; for Ks: substrate dissociation constant
From the text: Subsequent full mode of inhibition studies with compounds from the MetRS02 series were more challenging due to the partial inhibition profiles of some compounds resulting in poor global fits to the standard competitive, uncompetitive, and noncompetitive inhibition models (eqs 3, 4, and 5, respectively). In addition, during the enzymatic characterization of methionine binding to LdMetRS, a Hill slope of <1 was obtained (and was hypothesized to be due to conformational selection).[6] This low Hill slope is also not factored into the standard inhibition models described (eqs 3–5). New models with additional parameters to account for the partial inhibition and low methionine Hill slope were therefore required (eqs 6 and 7). Using these modified equations, the mode of inhibition of compound 27 was carried out by testing LdMetRS enzyme activity under varying substrate concentrations at various inhibitor concentrations (Figure 5). The cooperative, noncompetitive, partial inhibition model (eq 7) was confirmed as the best fit (using F-test analyses), with a noncompetitive mode of inhibition consistent with binding in an allosteric binding pocket. The returned fit parameters are shown in Table 4 and are presented with the standard error (SE) of the fit to eq 7.
as §1, §2, §3, §4

[6] = chromatographic hydrophobicity index
[7] = 50 μM methionine, 100 μM ATP, read-out: LdMetRS pIC50 (converted)
[8] = plateau of dose-response curve, 50 μM methionine, 100 μM ATP, read-out: LdMetRS Maximum % Inhibition Plateau
[9] = 50 μM methionine, 100 μM ATP, 80 nM TcMetRS, read-out: TcMetRS pIC50 (converted)
[10] = Table 2, 50 μM methionine, 100 μM ATP, read-out: LdMetRS Maximum % Inhibition

Row | Compound | solubility at 24 h [2] [µM] | chromatographic logD (CHI LogD measurement; [6]) | IC50 (LdMetRS [3]; [7]) [M] | Emax (LdMetRS [3]; [8]) [%] | IC50 (TcMetRS [4]; [9]) [µM] | also measured
1 | CN(C)c1nc(Nc2ccc(F)c(F)c2)nc2c1cnn2C [Compound 19] | 4.8 (≈ 1.46 µg/mL) | 2.88 | – | – | – | Ki (TcMetRS [1]; varied substrate ATP): inactive; Ki (TcMetRS [1]; varied substrate methionine): inactive; IC50 (LdMetRS [3]; LdMetRS pIC50, 50 μM methionine, 100 μM ATP): 1e-06 M; Emax (LdMetRS [3]; read-out: LdMetRS Maximum % Inhibition Plateau): 48.9%; IC50 (TcMetRS [4]): > 100 µM; Ki (LdMetRS [5]; varied substrate ATP): 1.21 ± 0.06 µM; Ki (LdMetRS [5]; varied substrate methionine): 1.22 ± 0.06 µM; h (inhibitor Hill slope) (LdMetRS [5]; substrate ATP, eq 7): 1.75 ± 0.12; β (fraction of activity remaining) (LdMetRS [5]; substrate ATP, eq 7): 0.55 ± 0.01; Vmax (LdMetRS [5]; substrate ATP, eq 7): 0.292 ± 0.004 μM Piformed/min; n (substrate Hill slope) (LdMetRS [5]; substrate ATP, eq 7): 1.03 ± 0.03 ^b; Ks (LdMetRS [5]; substrate ATP, eq 7): 21.0 ± 0.74 µM; h (inhibitor Hill slope) (LdMetRS [5]; substrate methionine, eq 7): 1.65 ± 0.11; β (fraction of activity remaining) (LdMetRS [5]; substrate methionine, eq 7): 0.57 ± 0.01; Vmax (LdMetRS [5]; substrate methionine, eq 7): 0.359 ± 0.009 μM Piformed/min; n (substrate Hill slope) (LdMetRS [5]; substrate methionine, eq 7): 0.53 ± 0.02; Ks (LdMetRS [5]; substrate methionine, eq 7): 313 ± 35 µM; mode of inhibition, LdMetRS (LdMetRS [5]; best fit by F-test, eq 7): noncompetitive
2 | Cn1ncc2c(NC3CCOCC3)nc(Nc3ccc(F)c(F)c3)nc21 [Compound 23] | 0.59 (≈ 0.213 µg/mL) | 2.45 | 7.94e-06 | 65.4 | > 100 | –
3 | CNc1nc(Nc2ccc(F)c(F)c2)nc2c1cnn2C [Compound 18] | 58 (≈ 16.8 µg/mL) | 2.31 | 6.31e-06 | 98.7 | > 100 | –
4 | Cn1ncc2c(NCCO)nc(Nc3ccc(Cl)cc3)nc21 [Compound 1] | – | – | 7.94e-06 | 89.5 | – | –
5 | COC(=O)[C@@H](CO)Nc1nc(Nc2ccc(F)c(F)c2)nc2c1cnn2C [Compound 30] | 29.8 (≈ 11.3 µg/mL) | 3.78 | 1.26e-06 | 102 | 39.8 | TcMetRS Maximum % Inhibition Plateau (TcMetRS [4]): 93.3%
6 | COC(=O)[C@H](Nc1nc(Nc2ccc(F)c(F)c2)nc2c1cnn2C)C(C)C [Compound 29] | 39.1 (≈ 15.3 µg/mL) | 6.22 | 7.94e-07 | 100 | 10 | TcMetRS Maximum % Inhibition Plateau (TcMetRS [4]): 51.5%
7 | COc1cc(Nc2nc(NCCO)c3cnn(C)c3n2)ccc1F [Compound 14] | – | – | > 0.0001 | – | > 100 | Emax (LdMetRS [3]; [10]): 36.8%; Emax (TcMetRS [4]; 50 μM methionine, 100 μM ATP): 4.9%
8 | CN(c1cccc(F)c1)c1nc(NCCO)c2cnn(C)c2n1 [Compound 12] | – | 1.51 | > 0.0001 | – | > 100 | Emax (LdMetRS [3]; [10]): 10.2%; Emax (TcMetRS [4]; 50 μM methionine, 100 μM ATP): 11.7%
9 | CC(C)Nc1nc(NCCO)c2cnn(C)c2n1 [Compound 11] | – | 0.63 | > 0.0001 | – | > 100 | Emax (LdMetRS [3]; [10]): 5.3%; Emax (TcMetRS [4]; 50 μM methionine, 100 μM ATP): 6.3%
10 | Cn1ncc2c(NCCO)nc(Nc3ccc(F)c(F)c3)nc21 [Compound 5] | – | – | 1.26e-05 | 98.7 | – | chromatographic logD (CHI LogD measurement; chromatography (chromatographic hydrophobicity index)): 1.64
11 | CN(CCO)c1nc(Nc2ccc(F)c(F)c2)nc2c1cnn2C [Compound 20] | 2.4 (≈ 0.802 µg/mL) | 1.99 | 2.51e-06 | 69.9 | > 100 | –
12 | Cn1ncc2c(N3CCC[C@H]3CO)nc(Nc3ccc(F)c(F)c3)nc21 [Compound 25] | 6.1 (≈ 2.2 µg/mL) | 2.43 | 7.94e-06 | 87.7 | > 100 | –
13 | Cn1ncc2c(NC3CCCCC3O)nc(Nc3ccc(F)c(F)c3)nc21 (stereo not drawn) [Compound 22] | – | 2.5 | 3.98e-06 | 61 | > 100 | –
14 | Cc1noc(CNc2nc(Nc3ccc(F)c(F)c3)nc3c2cnn3C)n1 [Compound 28] | 0.72 (≈ 0.268 µg/mL) | – | 6.31e-06 | 68.7 | > 100 | –
15 | Cn1ncc2c(NCCO)nc(Nc3ccc(F)cc3F)nc21 [Compound 6] | – | – | 1.26e-05 | 102 | – | –
